Experimental data from patent US20250090540A1, “PI3K-ALPHA INHIBITORS AND METHODS OF USE THEREOF” (Relay Therapeutics, Inc., priority 2021, published 2025).

Experiments:
H1047R PIK3CA enzyme = H1047R PIK3CA enzyme (Homo sapiens, UniProt P42336, H1047R); assay: ADP-Glo Biochemical PIK3CA Kinase Assay; conditions: ADP-Glo biochemical PIK3CA kinase assay
cells = conditions: Homo sapiens, MCF-10A, read-out: MCF10A I50

Chain of H1047R PIK3CA enzyme (P42336 whole entry H1047R): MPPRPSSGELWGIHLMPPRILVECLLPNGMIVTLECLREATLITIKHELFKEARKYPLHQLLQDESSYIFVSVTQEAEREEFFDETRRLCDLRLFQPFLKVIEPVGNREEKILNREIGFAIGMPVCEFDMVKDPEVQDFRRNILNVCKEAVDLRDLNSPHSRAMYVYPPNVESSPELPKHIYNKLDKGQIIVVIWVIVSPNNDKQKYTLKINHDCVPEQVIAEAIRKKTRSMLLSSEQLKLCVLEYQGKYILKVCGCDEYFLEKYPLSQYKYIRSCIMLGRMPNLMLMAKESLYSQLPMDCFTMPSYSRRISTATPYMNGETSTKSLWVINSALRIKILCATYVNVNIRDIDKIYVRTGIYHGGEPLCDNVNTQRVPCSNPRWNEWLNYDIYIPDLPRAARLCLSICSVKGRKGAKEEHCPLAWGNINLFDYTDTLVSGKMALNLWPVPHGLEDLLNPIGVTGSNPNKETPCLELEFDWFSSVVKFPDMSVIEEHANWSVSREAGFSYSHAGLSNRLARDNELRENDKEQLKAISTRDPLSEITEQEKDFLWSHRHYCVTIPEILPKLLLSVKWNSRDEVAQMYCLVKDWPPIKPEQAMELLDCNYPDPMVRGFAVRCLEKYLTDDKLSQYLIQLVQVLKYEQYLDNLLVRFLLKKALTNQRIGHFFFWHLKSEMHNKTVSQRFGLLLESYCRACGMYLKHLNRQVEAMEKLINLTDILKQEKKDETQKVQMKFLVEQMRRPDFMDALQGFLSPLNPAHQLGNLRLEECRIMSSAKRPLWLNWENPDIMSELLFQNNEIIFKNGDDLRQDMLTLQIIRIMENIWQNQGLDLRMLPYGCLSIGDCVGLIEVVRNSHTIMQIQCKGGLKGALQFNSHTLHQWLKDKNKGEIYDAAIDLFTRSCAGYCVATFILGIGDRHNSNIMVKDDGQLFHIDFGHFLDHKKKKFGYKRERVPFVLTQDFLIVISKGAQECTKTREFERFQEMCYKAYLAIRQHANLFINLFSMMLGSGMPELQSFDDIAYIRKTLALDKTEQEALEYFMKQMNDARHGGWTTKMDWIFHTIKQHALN
Chain of H1047R PIK3CA enzyme (P27986 whole entry partner): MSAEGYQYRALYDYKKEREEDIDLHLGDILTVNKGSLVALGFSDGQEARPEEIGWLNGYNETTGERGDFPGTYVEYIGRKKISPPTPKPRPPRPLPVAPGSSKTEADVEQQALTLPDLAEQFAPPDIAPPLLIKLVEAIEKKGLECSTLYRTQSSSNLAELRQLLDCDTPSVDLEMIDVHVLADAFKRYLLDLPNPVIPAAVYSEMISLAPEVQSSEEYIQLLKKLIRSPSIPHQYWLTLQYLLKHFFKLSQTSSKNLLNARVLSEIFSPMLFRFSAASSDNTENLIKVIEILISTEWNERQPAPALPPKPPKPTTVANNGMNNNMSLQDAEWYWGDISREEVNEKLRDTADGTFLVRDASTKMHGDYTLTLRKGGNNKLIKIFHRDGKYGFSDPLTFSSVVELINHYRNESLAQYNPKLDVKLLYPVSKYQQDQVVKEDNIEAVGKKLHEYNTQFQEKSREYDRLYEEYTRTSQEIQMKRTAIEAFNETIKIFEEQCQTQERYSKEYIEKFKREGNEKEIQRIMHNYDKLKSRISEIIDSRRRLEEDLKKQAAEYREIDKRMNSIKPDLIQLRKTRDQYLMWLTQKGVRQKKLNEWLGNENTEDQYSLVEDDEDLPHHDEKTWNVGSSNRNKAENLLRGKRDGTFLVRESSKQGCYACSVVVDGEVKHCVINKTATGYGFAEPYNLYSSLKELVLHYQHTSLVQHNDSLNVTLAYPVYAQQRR

Row | SMILES | IC50 (H1047R PIK3CA enzyme) [nM] | IC50 (cells) [nM]
1 | Cc1ccccc1Nc1ncc(C(=O)NCc2nc(C3CC3)no2)cc1NC(=O)c1csc2ccccc12 [I-540] | ≤ 100 | 1000 to 5000
2 | Cc1ccccc1Nc1ncc(C(=O)NC2CCC(F)(F)C2)cc1NC(=O)c1csc2ccccc12 (centres unmarked) [I-544] | 100 to 500 | 10000 to 36000
3 | Cc1ccccc1Nc1ncc(C(=O)N[C@H]2CCCOC2)cc1NC(=O)c1csc2ccccc12 [I-545] | 100 to 500 | 1000 to 5000
4 | Cc1ccccc1Nc1ncc(C(=O)N[C@H]2CC[C@@H](F)C2)cc1NC(=O)c1csc2ccccc12 [I-546] | ≤ 100 | 5000 to 10000
5 | Cc1ccccc1Nc1ncc(C(=O)N[C@@H]2CC[C@@H](F)C2)cc1NC(=O)c1csc2ccccc12 [I-547] | 100 to 500 | 5000 to 10000
6 | Cc1ccccc1Nc1ncc(C(=O)NCc2ccon2)cc1NC(=O)c1csc2ccccc12 [I-560] | ≤ 100 | 1000 to 5000
7 | Cc1ccccc1Nc1ncc(C(=O)NCc2cnc3c(C)cccn23)cc1NC(=O)c1csc2ccccc12 [I-561] | 100 to 500 | 10000 to 36000
8 | Cc1ccccc1Nc1ncc(C(=O)NCC2CCN(C)C(=O)C2)cc1NC(=O)c1csc2ccccc12 (centres unmarked) [I-563] | 100 to 500 | 10000 to 36000
9 | CNC(=O)c1cnc(Nc2ccccc2C)c(NC(=O)c2ccc3nnc(Br)n3c2)c1 [I-564] | 500 to 1000 | 10000 to 36000
10 | Cc1ccccc1Nc1ncc(C(=O)NC2NC(=O)c3ccccc32)cc1NC(=O)c1csc2ccccc12 (centres unmarked) [I-568] | ≤ 100 | 1000 to 5000
11 | Cc1ccccc1Nc1ncc(C(=O)NCC2CCNC(=O)C2)cc1NC(=O)c1csc2ccccc12 (centres unmarked) [I-569] | 100 to 500 | 10000 to 36000
12 | Cc1ccccc1Nc1ncc(C(=O)NCCn2ccnn2)cc1NC(=O)c1csc2ccccc12 [I-570] | 100 to 500 | 10000 to 36000
13 | Cc1ccccc1Nc1ncc(C(=O)N[C@H]2CCC(F)(F)C[C@@H]2O)cc1NC(=O)c1csc2ccccc12 [I-571] | 100 to 500 | 1000 to 5000
14 | Cc1ccccc1Nc1ncc(C(=O)NCc2ccncn2)cc1NC(=O)c1csc2ccccc12 [I-572] | 100 to 500 | < 1000
15 | Cc1ccccc1Nc1ncc(C(=O)Nc2ncn(C)n2)cc1NC(=O)c1csc2ccccc12 [I-573] | 500 to 1000 | 10000 to 36000
16 | Cc1ccccc1Nc1ncc(C(=O)NCCn2nccn2)cc1NC(=O)c1csc2ccccc12 [I-578] | 100 to 500 | 10000 to 36000
17 | Cc1cncc(CNC(=O)c2cnc(Nc3ccccc3C)c(NC(=O)c3csc4ccccc34)c2)c1 [I-579] | ≤ 100 | 5000 to 10000
18 | Cc1ccccc1Nc1ncc(C(=O)NCC2(C#N)CC2)cc1NC(=O)c1csc2ccccc12 [I-580] | ≤ 100 | 1000 to 5000
19 | Cc1ccccc1Nc1ncc(C(=O)NC2(C)CC2)cc1NC(=O)c1csc2ccccc12 [I-581] | ≤ 100 | 1000 to 5000
20 | Cc1ccccc1Nc1ncc(C(=O)NCc2nnc3ccccn23)cc1NC(=O)c1csc2ccccc12 [I-582] | ≤ 100 | 5000 to 10000

Row | SMILES | IC50 (H1047R PIK3CA enzyme) [nM] | IC50 (cells) [nM]
21 | Cc1ccccc1Nc1ncc(C(=O)NCC2(O)CCOC2)cc1NC(=O)c1csc2ccccc12 (centres unmarked) [I-583] | 500 to 1000 | 10000 to 36000
22 | Cc1ccccc1Nc1ncc(C(=O)NC2CCOCC2)cc1NC(=O)c1csc2ccccc12 [I-584] | 100 to 500 | 5000 to 10000
23 | Cc1ccccc1Nc1ncc(C(=O)NC2COCC(O)C2)cc1NC(=O)c1csc2ccccc12 (centres unmarked) [I-585] | 100 to 500 | 10000 to 36000
24 | Cc1ccccc1Nc1ncc(C(=O)NCC2CCC(O)C2)cc1NC(=O)c1csc2ccccc12 (centres unmarked) [I-588] | 100 to 500 | 10000 to 36000
25 | Cc1ccccc1Nc1ncc(C(=O)N[C@@H]2COC[C@@H]2F)cc1NC(=O)c1csc2ccccc12 [I-590] | 100 to 500 | 5000 to 10000
26 | Cc1ccccc1Nc1ncc(C(=O)N[C@H]2C[C@@H](C(N)=O)C2)cc1NC(=O)c1csc2ccccc12 [I-591] | ≤ 100 | 1000 to 5000
27 | COCC(=O)N1CCC(NC(=O)c2cnc(Nc3ccccc3C)c(NC(=O)c3csc4ccccc34)c2)CC1 [I-592] | 1000 to 10000 | 5000 to 10000
28 | Cc1ccccc1Nc1ncc(C(=O)NCc2nccc3ccccc23)cc1NC(=O)c1csc2ccccc12 [I-593] | 100 to 500 | 10000 to 36000
29 | Cc1ccccc1Nc1ncc(C(=O)N[C@@H]2CCO[C@@H]2C)cc1NC(=O)c1csc2ccccc12 [I-594] | 100 to 500 | 5000 to 10000
30 | Cc1ccccc1Nc1ncc(C(=O)N[C@H]2CC[C@@H](O)C2)cc1NC(=O)c1csc2ccccc12 [I-596] | 100 to 500 | 1000 to 5000
31 | Cc1ccccc1Nc1ncc(C(=O)NCC(=O)N2CCCC2)cc1NC(=O)c1csc2ccccc12 [I-597] | 1000 to 10000 | 36000 to 100000
32 | COc1cc(CCNC(=O)c2cnc(Nc3ccccc3C)c(NC(=O)c3csc4ccccc34)c2)ccn1 [I-598] | 100 to 500 | 5000 to 10000
33 | Cc1ccccc1Nc1ncc(C(=O)NCC2(O)CC2)cc1NC(=O)c1csc2ccccc12 [I-599] | 100 to 500 | 5000 to 10000
34 | Cc1ccccc1Nc1ncc(C(=O)NCc2cn(C)nc2C)cc1NC(=O)c1csc2ccccc12 [I-601] | ≤ 100 | 5000 to 10000
35 | Cc1ccccc1Nc1ncc(C(=O)NCc2cocn2)cc1NC(=O)c1csc2ccccc12 [I-602] | 100 to 500 | 10000 to 36000
36 | Cc1ccccc1Nc1ncc(C(=O)NCC2(O)CCOCC2)cc1NC(=O)c1csc2ccccc12 [I-603] | 500 to 1000 | 10000 to 36000
37 | Cc1cc(CNC(=O)c2cnc(Nc3ccccc3C)c(NC(=O)c3csc4ccccc34)c2)no1 [I-604] | ≤ 100 | 1000 to 5000
38 | Cc1ccccc1Nc1ncc(C(=O)NC(C)c2cn[nH]c2)cc1NC(=O)c1csc2ccccc12 (centres unmarked) [I-605] | ≤ 100 | 1000 to 5000
39 | Cc1ccccc1Nc1ncc(C(=O)N2CC(C)C2)cc1NC(=O)c1csc2ccccc12 [I-607] | 100 to 500 | 5000 to 10000
40 | Cc1ccccc1Nc1ncc(C(=O)NCC2(S(C)(=O)=O)CCC2)cc1NC(=O)c1csc2ccccc12 [I-608] | 500 to 1000 | 10000 to 36000

Row | SMILES | IC50 (H1047R PIK3CA enzyme) [nM] | IC50 (cells) [nM]
41 | Cc1ccccc1Nc1ncc(C(=O)Nc2ccc3cn(C)nc3c2)cc1NC(=O)c1csc2ccccc12 [I-609] | ≤ 100 | 1000 to 5000
42 | Cc1ccccc1Nc1ncc(C(=O)NCC(O)C2CCCC2)cc1NC(=O)c1csc2ccccc12 (centres unmarked) [I-610] | 100 to 500 | 10000 to 36000
43 | CCn1ccc(C)c(CNC(=O)c2cnc(Nc3ccccc3C)c(NC(=O)c3csc4ccccc34)c2)c1=O [I-611] | 100 to 500 | 5000 to 10000
44 | Cc1ccccc1Nc1ncc(C(=O)NC2(C(N)=O)CC2)cc1NC(=O)c1csc2ccccc12 [I-612] | 100 to 500 | < 1000
45 | Cc1ccccc1Nc1ncc(C(=O)N2CC(O)C2)cc1NC(=O)c1csc2ccccc12 [I-613] | 100 to 500 | 10000 to 36000
46 | Cc1ccccc1Nc1ncc(C(=O)NC(C)c2nnc3ccccn23)cc1NC(=O)c1csc2ccccc12 (centres unmarked) [I-616] | ≤ 100 | 1000 to 5000
47 | Cc1ccccc1Nc1ncc(C(=O)N[C@H]2COC[C@@H]2O)cc1NC(=O)c1csc2ccccc12 [I-618] | 100 to 500 | 1000 to 5000
48 | Cc1ccccc1Nc1ncc(C(=O)N[C@H]2COc3ccccc3C2)cc1NC(=O)c1csc2ccccc12 [I-619] | 100 to 500 | 36000 to 100000
49 | Cc1ccccc1Nc1ncc(C(=O)NCC2CCCOC2)cc1NC(=O)c1csc2ccccc12 (centres unmarked) [I-621] | 100 to 500 | 10000 to 36000
50 | Cc1ccccc1Nc1ncc(C(=O)N[C@H]2CCOC2)cc1NC(=O)c1csc2ccccc12 [I-622] | 100 to 500 | 1000 to 5000
51 | Cc1ccccc1Nc1ncc(C(=O)Nc2cnn(C)c2)cc1NC(=O)c1csc2ccccc12 [I-624] | 100 to 500 | < 1000
52 | Cc1ccn2c(CNC(=O)c3cnc(Nc4ccccc4C)c(NC(=O)c4csc5ccccc45)c3)nnc2c1 [I-625] | 100 to 500 | 10000 to 36000
53 | Cc1ccccc1Nc1ncc(C(=O)N[C@@H]2CC[C@@H](O)C2)cc1NC(=O)c1csc2ccccc12 [I-626] | 100 to 500 | 1000 to 5000
54 | Cc1ccccc1Nc1ncc(C(=O)N2CCn3nccc32)cc1NC(=O)c1csc2ccccc12 [I-627] | 1000 to 10000 | 10000 to 36000
55 | Cc1ccccc1Nc1cccnc1NC(=O)c1csc2ccccc12 [I-635] | 100 to 500 | 36000 to 100000
56 | CNC(=O)c1cnc(Nc2ccccc2C)c(NC(=O)Cc2cnc3ccccn23)c1 [I-652] | 100 to 500 | 10000 to 36000
57 | CNC(=O)c1cnc(N)c(NC(=O)c2csc3ccccc23)c1 [I-676] | 500 to 1000 | 10000 to 36000
58 | CNC(=O)c1cnc(Nc2ccccc2C)c(NC(=O)c2cc(F)c(F)c(C(F)(F)F)c2)c1 [I-677] | 1000 to 10000 | 10000 to 36000
